Measurements: ChEMBL document CHEMBL6134792, “Discovery of selective LATS inhibitors via scaffold hopping: enhancing drug-likeness and kinase selectivity for potential applications in regenerative medicine” (RSC Med Chem, 2024)

Test: Clearance in male mouse at 20 mg/kg, po or 5 mg/kg, iv by LC-MS/MS analysis
Assay type: ADME, organism-based
Conditions: in vivo

For O=C(/N=c1\sccn1Cc1ccccc1)c1n[nH]c2ncccc12, which CL is on record?
Its CL is 28.3 mL/min/kg.
